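All cell lines were grown in 96-well plates and treated with compound for 48 hours. Here, GI50 denotes the concentration required for 50% inhibition of growth.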 Active and inactive are the calls of the source. No stated cut-off is given here; in the data, active = GI50 up to about 1.1 µM and inactive = higher.
What was measured:
Test in all cases: inhibition of tumour cell growth, NCI panel, 48 h
[1] = system: KM12
[2] = system: MDA-N
[3] = system: SK-MEL-28
[4] = system: Hs-578T
[5] = system: SF-268
[6] = system: NCI/ADR-RES
[7] = system: MDA-MB-435
[8] = system: NCI-H23
[9] = system: SR
[10] = system: UACC-62
[11] = system: HCT-116
[12] = system: K562
[13] = system: HT-29
[14] = system: MOLT-4
[15] = system: SW-620
[16] = system: HL-60
[17] = system: SF-295
[18] = system: OVCAR-8
[19] = system: SK-MEL-2
[20] = system: HOP-62
[21] = system: HOP-92
[22] = system: UACC-257
[23] = system: IGROV-1
[24] = system: NCI-H226
[25] = system: A549
[26] = system: SNB-75
[27] = system: OVCAR-4
[28] = system: OVCAR-3
[29] = system: ACHN
[30] = system: LOX IMVI
[31] = system: RPMI-8226
[32] = system: 786-0
[33] = system: DU-145
[34] = system: PC-3
[35] = system: MDA-MB-231
[36] = system: SN12C
[37] = system: T47D
[38] = system: SK-OV-3
[39] = system: SK-MEL-5
[40] = system: TK-10
[41] = system: COLO 205
[42] = system: SNB-19
[43] = system: RXF 393
[44] = system: HCT-15
[45] = system: BT-549
[46] = system: CCRF-CEM
[47] = system: A498
[48] = system: EKVX
[49] = system: CAKI-1
[50] = system: UO-31
[51] = system: U-251
[52] = system: HCC 2998
[53] = system: NCI-H460
[54] = system: NCI-H522
[55] = system: SF-539
[56] = system: Malme-3M

CC1(c2ccc(Cl)cc2)c2ccccc2C(=O)N1CCCN1C(=O)c2ccccc2C1=O (centres undefined) was tested, and the GI50 [1] was 20.9 µM (inactive), the GI50 [2] was 58.7 µM (inactive) and the GI50 [3] was 69.5 µM (inactive). For the same compound, the GI50 [4] was 35.4 µM (inactive), the GI50 [5] was 40.6 µM (inactive) and the GI50 [6] was 19.9 µM (inactive). For the same compound, the GI50 [7] was 33.3 µM (inactive), the GI50 [8] was 25.4 µM (inactive) and the GI50 [9] was 34.6 µM (inactive). For the same compound, the GI50 [10] was 30.1 µM (inactive), the GI50 [11] was 13.6 µM (inactive) and the GI50 [12] was 50.5 µM (inactive). For the same compound, the GI50 [13] was 32.2 µM (inactive), the GI50 [14] was 29.5 µM (inactive) and the GI50 [15] was 56.8 µM (inactive). The GI50 [16] was 28.5 µM (inactive), the GI50 [17] was 24.2 µM (inactive) and the GI50 [18] was 26.7 µM (inactive). For the same compound, the GI50 [19] was 20.3 µM (inactive), the GI50 [20] was 49.7 µM (inactive) and the GI50 [21] was 73.6 µM (inactive). The GI50 [22] was 51.8 µM (inactive), the GI50 [23] was 9.33 µM (inactive) and the GI50 [24] was 22.7 µM (inactive). The GI50 [25] was 24.7 µM (inactive), the GI50 [26] was 58.9 µM (inactive) and the GI50 [27] was 61.8 µM (inactive). The GI50 [28] was 32.7 µM (inactive), the GI50 [29] was 29.6 µM (inactive) and the GI50 [30] was 19.6 µM (inactive). The GI50 [31] was 33.3 µM (inactive), the GI50 [32] was 26.2 µM (inactive) and the GI50 [33] was 40.3 µM (inactive). For the same compound, the GI50 [34] was 83 µM (inactive), the GI50 [35] was > 100 µM (inactive) and the GI50 [36] was > 100 µM (inactive). For the same compound, the GI50 [37] was 21.3 µM (inactive), the GI50 [38] was 31.2 µM (inactive) and the GI50 [39] was 16.4 µM (inactive). For the same compound, the GI50 [40] was > 100 µM (inactive), the GI50 [41] was 18.5 µM (inactive) and the GI50 [42] was 18.3 µM (inactive). For the same compound, the GI50 [43] was 29.4 µM (inactive), the GI50 [44] was 34 µM and the GI50 [45] was > 100 µM (inactive). For the same compound, the GI50 [46] was 45.1 µM (inactive), the GI50 [47] was > 100 µM (inactive) and the GI50 [48] was 3.36 µM (inactive). The GI50 [49] was 86.3 µM (inactive), the GI50 [50] was 39.9 µM (inactive) and the GI50 [51] was 52.8 µM (inactive).

With CN(N)c1cc(=O)[nH]c(=O)[nH]1 the GI50 [1] was > 100 µM (inactive), the GI50 [2] was > 100 µM (inactive) and the GI50 [3] was > 100 µM (inactive). The GI50 [4] was 51.2 µM (inactive), the GI50 [5] was > 100 µM (inactive) and the GI50 [6] was > 100 µM (inactive). For the same compound, the GI50 [8] was > 100 µM (inactive), the GI50 [9] was > 100 µM (inactive) and the GI50 [10] was > 100 µM (inactive). The GI50 [11] was > 100 µM (inactive), the GI50 [12] was > 100 µM (inactive) and the GI50 [13] was > 100 µM (inactive). The GI50 [14] was > 100 µM (inactive), the GI50 [15] was > 100 µM (inactive) and the GI50 [16] was 43.4 µM (inactive). For the same compound, the GI50 [17] was > 100 µM (inactive), the GI50 [18] was > 100 µM (inactive) and the GI50 [20] was > 100 µM (inactive). For the same compound, the GI50 [52] was > 100 µM (inactive), the GI50 [22] was > 100 µM (inactive) and the GI50 [23] was > 100 µM (inactive). The GI50 [53] was > 100 µM (inactive), the GI50 [24] was > 100 µM (inactive) and the GI50 [25] was 54 µM (inactive). For the same compound, the GI50 [27] was > 100 µM (inactive), the GI50 [28] was > 100 µM (inactive) and the GI50 [29] was > 100 µM (inactive). The GI50 [54] was > 100 µM (inactive), the GI50 [30] was > 100 µM (inactive) and the GI50 [31] was > 100 µM (inactive). The GI50 [32] was > 100 µM (inactive), the GI50 [33] was > 100 µM (inactive) and the GI50 [34] was > 100 µM (inactive). The GI50 [35] was > 100 µM (inactive), the GI50 [36] was > 100 µM (inactive) and the GI50 [55] was > 100 µM (inactive). For the same compound, the GI50 [37] was > 100 µM (inactive), the GI50 [38] was > 100 µM (inactive) and the GI50 [39] was > 100 µM (inactive). The GI50 [40] was > 100 µM (inactive), the GI50 [42] was > 100 µM (inactive) and the GI50 [44] was > 100 µM. For the same compound, the GI50 [45] was 0.03 µM (active), the GI50 [56] was > 100 µM (inactive) and the GI50 [46] was > 100 µM (inactive). For the same compound, the GI50 [47] was > 100 µM (inactive), the GI50 [48] was > 100 µM (inactive) and the GI50 [49] was 6.22 µM (inactive).

Source: ChEMBL document CHEMBL1201862, “PubChem BioAssay data set” (2004)
